In US11098041B2 (Merck Patent GmbH, priority 2014, dated 2021):

Columns and labels:
[1] = target: BTK C481S (His-TEV-hsBTK(328-659)(C481S)) (Homo sapiens (Human), UniProt Q06187, C481S); assay: Assay B: microfluidic off-chip mobility shift assay against BTK C481S enzyme; format: biochemical; details: BTK C481S mutant
How it was run: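 Substrate-to-phosphopeptide conversion quantified by microfluidic mobility shift with laser-induced fluorescence; IC50 and efficacy from log[inhibitor] vs. % activity.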

[2] = test system: anti-IgM-induced expression of CD69 on CD19 positive cells (B cells) in human PBMCs; assay: Assay C: PBMC IC50 assay (anti-IgM-induced CD69 expression); format: cell-based; details: anti-IgM stimulation
How it was run: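 Freshly isolated human PBMCs (2.5×10^5/well) pretreated 1 h with compound, then stimulated overnight (~16-18 h) with goat F(ab′)2 anti-human IgM. CD69 on CD19+ B cells measured by flow cytometry; IC50 from percentage CD69+ B cells versus concentration.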

[3] = target: full-length human BTK (Homo sapiens (Human), UniProt Q06187); assay: Assay A: microfluidic off-chip mobility shift assay against BTK enzyme; format: biochemical
Chain of full-length human BTK (Q06187 whole entry): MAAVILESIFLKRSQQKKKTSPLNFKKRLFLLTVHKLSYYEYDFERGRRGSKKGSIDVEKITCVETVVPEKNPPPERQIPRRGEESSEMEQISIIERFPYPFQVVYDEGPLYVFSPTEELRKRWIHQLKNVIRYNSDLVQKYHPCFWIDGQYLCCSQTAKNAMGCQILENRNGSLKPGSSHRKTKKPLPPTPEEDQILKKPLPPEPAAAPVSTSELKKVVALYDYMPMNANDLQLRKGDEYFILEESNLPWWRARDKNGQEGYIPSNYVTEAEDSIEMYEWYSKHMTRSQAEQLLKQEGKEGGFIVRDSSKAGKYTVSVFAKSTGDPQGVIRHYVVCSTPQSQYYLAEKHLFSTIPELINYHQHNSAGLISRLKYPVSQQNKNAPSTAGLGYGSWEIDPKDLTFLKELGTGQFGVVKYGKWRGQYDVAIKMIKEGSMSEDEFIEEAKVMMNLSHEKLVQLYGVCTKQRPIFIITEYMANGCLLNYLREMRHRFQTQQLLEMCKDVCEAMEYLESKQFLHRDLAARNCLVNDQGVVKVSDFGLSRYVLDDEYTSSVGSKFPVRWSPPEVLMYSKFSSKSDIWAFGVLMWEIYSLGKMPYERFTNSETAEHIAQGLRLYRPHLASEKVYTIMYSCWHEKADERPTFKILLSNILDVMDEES

Chain of BTK C481S (His-TEV-hsBTK(328-659)(C481S)) (Q06187 328-659 C481S): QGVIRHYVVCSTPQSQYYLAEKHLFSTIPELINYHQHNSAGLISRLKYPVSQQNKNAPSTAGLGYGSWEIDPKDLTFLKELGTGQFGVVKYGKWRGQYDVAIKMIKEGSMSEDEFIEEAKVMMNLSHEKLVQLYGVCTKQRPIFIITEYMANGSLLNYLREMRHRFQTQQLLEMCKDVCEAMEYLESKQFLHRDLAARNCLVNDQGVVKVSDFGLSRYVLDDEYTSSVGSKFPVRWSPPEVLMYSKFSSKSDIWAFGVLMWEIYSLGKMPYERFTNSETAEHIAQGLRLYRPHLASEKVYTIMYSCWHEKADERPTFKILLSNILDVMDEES

Row | SMILES | IC50 [1] [nM] | IC50 [3] [nM] | IC50 [2] [nM]
1 | Cn1cc(-c2nc3c(-c4ccc(CNC(=O)c5nnc(C(C)(C)C)o5)cc4)ccnc3[nH]2)cn1 [Example 109, 5-tert-Butyl-[1,3,4]oxadiazole-2-carboxylic acid 4-[2-(1-methyl-1H-pyrazol-4-yl)-3H-imidazo[4,5-b]pyridin-7-yl]-benzylamide] | 1000 to 5000 | < 100 | 1000 to 5000
2 | CC(C)(C)c1nc(C(=O)NCc2ccc(-c3ccnc4[nH]c(-c5ccc(N6CCCC6)cn5)nc34)cc2F)no1 [Example 80, 5-tert-Butyl-N-[(2-fluoro-4-[2-[5-(pyrrolidin-1-yl)pyridin-2-yl]-3H-imidazo[4,5-b]pyridin-7-yl]phenyl)methyl]-1,2,4-oxadiazole-3-carboxamide] | < 100 | < 100 | 100 to 1000
3 | Cn1cc(-c2nc3c(-c4ccc(C5(NC(=O)N6CC(OC(C)(C)C)C6)CC5)c(F)c4)ccnc3[nH]2)cn1 [Example 52, 3-(tert-Butoxy)-N-(1-[2-fluoro-4-[2-(1-methyl-1H-pyrazol-4-yl)-3H-imidazo[4,5-b]pyridin-7-yl]phenyl]cyclopropyl)azetidine-1-carboxamide] | < 100 | < 100 | 100 to 1000
4 | CN1CCN(Cc2ccc(-c3nc4c(-c5ccc(CNC(=O)c6noc(C(C)(C)C)n6)c(F)c5)ccnc4[nH]3)cc2)CC1 [Example 71, 5-tert-Butyl-N-[[2-fluoro-4-(2-[4-[(4-methylpiperazin-1-yl)methyl]phenyl]-1H-imidazo[4,5-b]pyridin-7-yl)phenyl]methyl]-1,2,4-oxadiazole-3-carboxamide] | < 100 | < 100 | < 100
5 | Cn1cc(-c2nc3c(-c4cccc(NC(=O)c5cc6c(s5)CCCC6)c4CO)ccnc3[nH]2)cn1 [Example 50, N-[2-(hydroxymethyl)-3-[2-(1-methyl-1H-pyrazol-4-yl)-3H-imidazo[4,5-b]pyridin-7-yl]phenyl]-4,5,6,7-tetrahydro-1-benzothiophene-2-carboxamide] | < 100 | < 100 | 100 to 1000
6 | CN1CCN(c2ccc(-c3nc4c(-c5ccc(CNC(=O)c6noc(C(C)(C)C)n6)c(F)c5)ccnc4[nH]3)nc2)CC1 [Example 79, 5-tert-Butyl-N-[(2-fluoro-4-[2-[5-(4-methylpiperazin-1-yl)pyridin-2-yl]-3H-imidazo[4,5-b]pyridin-7-yl]phenyl)methyl]-1,2,4-oxadiazole-3-carboxamide] | < 100 | < 100 | < 100
7 | CN(C)c1ccc(-c2nc3c(-c4ccc(C5(NC(=O)c6ccc(C(C)(C)C)cc6)CC5)cc4)ccnc3[nH]2)nc1 [Example 54, 4-tert-Butyl-N-[1-(4-[2-[5-(dimethylamino)pyridin-2-yl]-3H-imidazo[4,5-b]pyridin-7-yl]phenyl)cyclopropyl]benzamide] | 100 to 1000 | < 100 | 100 to 1000
8 | CC(C)(C)c1nc(C(=O)NCc2ccc(-c3ccnc4[nH]c(-c5cnn(CCO)c5)nc34)cc2F)no1 [Example 70, 5-tert-Butyl-N-[(2-fluoro-4-[2-[1-(2-hydroxyethyl)-1H-pyrazol-4-yl]-3H-imidazo[4,5-b]pyridin-7-yl]phenyl)methyl]-1,2,4-oxadiazole-3-carboxamide] | < 100 | < 100 | 100 to 1000
9 | Cn1cc(-c2nc3c(-c4ccc(CNC(=O)c5nnc(C(C)(C)C)o5)c(F)c4)ccnc3[nH]2)cn1 [Example 111, 5-tert-Butyl-[1,3,4]oxadiazole-2-carboxylic acid 2-fluoro-4-[2-(1-methyl-1H-pyrazol-4-yl)-3H-imidazo[4,5-b]pyridin-7-yl]-benzylamide] | < 100 | < 100 | 100 to 1000
10 | CN1CC=C(c2nc3c(-c4ccc(CNC(=O)c5nnc(C(C)(C)C)o5)c(F)c4)ccnc3[nH]2)CC1 [Example 139, 5-tert-Butyl-[1,3,4]oxadiazole-2-carboxylic acid 2-fluoro-4-[2-(1-methyl-1,2,3,6-tetrahydro-pyridin-4-yl)-3H-imidazo[4,5-b]pyridin-7-yl]-benzylamide] | < 100 | < 100 | 1000 to 5000
11 | CN(C)c1nc(C(=O)NCc2ccc(-c3ccnc4[nH]c(-c5cnn(C)c5)nc34)cc2F)no1 [Example 57, 5-(Dimethylamino)-N-(2-fluoro-4-(2-(1-methyl-1H-pyrazol-4-yl)-3H-imidazo[4,5-b]pyridin-7-yl)benzyl)-1,2,4-oxadiazole-3-carboxamide 2,2,2-trifluoroacetate] | < 100 | < 100 | 1000 to 5000
12 | Cn1cc(-c2nc3c(-c4ccc(C(C)(C)NC(=O)c5ccc(C(C)(C)C)cc5)c(F)c4)ccnc3[nH]2)cn1 [Example 106, 4-tert-Butyl-N-(1-{2-fluoro-4-[2-(1-methyl-1H-pyrazol-4-yl)-3H-imidazo[4,5-b]pyridin-7-yl]-phenyl}-1-methyl-ethyl)-benzamide] | 100 to 1000 | < 100 | 100 to 1000
13 | COc1ccnc(-c2nc3c(-c4ccc(CNC(=O)c5noc(C(C)(C)C)n5)c(F)c4)ccnc3[nH]2)c1 [Example 75, 5-tert-Butyl-N-([2-fluoro-4-[2-(4-methoxypyridin-2-yl)-3H-imidazo[4,5-b]pyridin-7-yl]phenyl]methyl)-1,2,4-oxadiazole-3-carboxamide] | < 100 | < 100 | 100 to 1000
14 | CC(C)(C)c1ccc(C(=O)NCc2ccc(-c3ccnc4[nH]c(-c5ccc(C6=CCNCC6)cc5)nc34)cc2F)cc1 [Example 66, 4-tert-Butyl-N-[(2-fluoro-4-[2-[4-(1,2,3,6-tetrahydropyridin-4-yl)phenyl]-3H-imidazo[4,5-b]pyridin-7-yl]phenyl)methyl]benzamide] | < 100 | < 100 | 100 to 1000
15 | CN(C)c1ccc(-c2nc3c(-c4cccc(N5CCOc6cc(C7CC7)cc(F)c6C5=O)c4CO)ccnc3[nH]2)nc1 [Example 41, 8-cyclopropyl-4-(3-[2-[5-(dimethylamino)pyridin-2-yl]-3H-imidazo[4,5-b]pyridin-7-yl]-2-(hydroxymethyl)phenyl)-6-fluoro-2,3,4,5-tetrahydro-1,4-benzoxazepin-5-one] | < 100 | < 100 | 1000 to 5000

Continued, in another order:

Row | IC50 [1] [nM] | IC50 [3] [nM] | SMILES | IC50 [2] [nM]
16 | < 100 | < 100 | CC(C)(C)c1nc(C(=O)NCc2ccc(-c3ccnc4[nH]c(-c5ccc(N6CCCCC6)cn5)nc34)cc2F)no1 [Example 83, 5-tert-Butyl-N-[(2-fluoro-4-[2-[5-(piperidin-1-yl)pyridin-2-yl]-3H-imidazo[4,5-b]pyridin-7-yl]phenyl)methyl]-1,2,4-oxadiazole-3-carboxamide] | < 100
17 | < 100 | < 100 | Cn1cc(-c2nc3c(-c4ccnc(N5CCn6c(cc7c6CC(C)(C)C7)C5=O)c4CO)ccnc3[nH]2)cn1 [Example 11, 2-(3-(hydroxymethyl)-4-(2-(1-methyl-1H-pyrazol-4-yl)-3H-imidazo[4,5-b]pyridin-7-yl)pyridin-2-yl)-7,7-dimethyl-2,3,4,6,7,8-hexahydro-1H-cyclopenta[4,5]pyrrolo[1,2-a]pyrazin-1-one] | 100 to 1000
18 | < 100 | < 100 | O=C1c2c(F)cc(C3CC3)cc2OCCN1c1cccc(-c2ccnc3[nH]c(-c4cccnc4)nc23)c1CO [Example 2, 8-Cyclopropyl-6-fluoro-4-[2-(hydroxymethyl)-3-[2-(pyridin-3-yl)-3H-imidazo[4,5-b]pyridin-7-yl]phenyl]-2,3,4,5-tetrahydro-1,4-benzoxazepin-5-one] | 1000 to 5000
19 | < 100 | < 100 | Cn1cc(-c2nc3c(-c4cc(F)cc(N5CCn6c(cc7c6CC(C)(C)C7)C5=O)c4CO)ccnc3[nH]2)cn1 [Example 10, 2-(5-fluoro-2-(hydroxymethyl)-3-(2-(1-methyl-1H-pyrazol-4-yl)-3H-imidazo[4,5-b]pyridin-7-yl)phenyl)-7,7-dimethyl-2,3,4,6,7,8-hexahydro-1H-cyclopenta[4,5]pyrrolo[1,2-a]pyrazin-1-one] | < 100
20 | < 100 | < 100 | Cn1cc(-c2nc3c(-c4cccc(NC(=O)c5ccc(C6CC6)nc5)c4CO)ccnc3[nH]2)cn1 [Example 49, 6-Cyclopropyl-N-[2-(hydroxymethyl)-3-[2-(1-methyl-1H-pyrazol-4-yl)-3H-imidazo[4,5-b]pyridin-7-yl]phenyl]pyridine-3-carboxamide] | 100 to 1000
21 | < 100 | < 100 | CC(C)(C)c1nc(C(=O)NCc2ccc(-c3ccnc4[nH]c(-c5cccc(OC(F)(F)F)c5)nc34)cc2F)no1 [Example 74, 5-tert-Butyl-N-[(2-fluoro-4-[2-[3-(trifluoromethoxy)phenyl]-3H-imidazo[4,5-b]pyridin-7-yl]phenyl)methyl]-1,2,4-oxadiazole-3-carboxamide; trifluoroacetic acid] | 100 to 1000
22 | < 100 | < 100 | CN(C)c1ccc(-c2nc3c(-c4ccc(CNC(=O)c5ccc(C(C)(C)C)cc5)c(F)c4)ccnc3[nH]2)nc1 [Example 89, 4-tert-Butyl-N-[(4-[2-[5-(dimethylamino)pyridin-2-yl]-3H-imidazo[4,5-b]pyridin-7-yl]-2-fluorophenyl)methyl]benzamide] | 1000 to 5000
23 | < 100 | < 100 | Cn1cc(-c2nc3c(-c4ccc(CNC(=O)c5nc(C(C)(C)C)no5)cc4CO)ccnc3[nH]2)cn1 [Example 105, 3-tert-Butyl-[1,2,4]oxadiazole-5-carboxylic acid 3-hydroxymethyl-4-[2-(1-methyl-1H-pyrazol-4-yl)-3H-imidazo[4,5-b]pyridin-7-yl]-benzylamide] | 1000 to 5000
